A short description of series [1]: Thermogravimetric analysis (TGA), weight loss over time at 40° C. The format is physicochemical. The settings on record: samples kept at 40° C. for 180 minutes, mixture = menthyl acetate (10%) + silica gel (ex Grace, coded 123). Here is the method:
The stabilization effect has been proven by running a Thermogravimetric analysis (TGA) on samples of narrow silica gel treated with 10 weight-% of menthyl acetate. Specifically, the method is based on evaluation of weight loss over time at specific temperature (40° C.). The samples were kept at 40° C. for 180 minutes. In order to have a basis for comparison the TGA analysis was performed on a sample of pure menthyl acetate and a sample of pure silica gel as references together with a sample of menthyl acetate (10%)+silica gel (ex Grace, coded 123).

The nature of series [2]: Odor unpleasantness of samples exposed to malodorant solution, evaluated by a panel of expert graders. The settings on record: % relative unpleasantness vs. reference (malodorant solution = 100); 10 ml of 0.1% aqueous ammonia; 16 mg total odor control material; five expert graders, 4 replicates, 25° C. Here is the method:
For proving the synergistic effect on odor reduction several test samples are prepared by exposing them to a 0.1% aqueous solution of ammonia, which serves as a test malodorous substance. The first data point in table 2 serves as a benchmark as it represents the degree of unpleasantness of the ammonia solution without added odor control material. Data points 2-3 in table 2 are illustrating the malodor-reducing activity of two exemplary odor control materials alone, specifically alpha-amylcinnamaldehyde as exemplary aldehyde and menthyl acetate as an exemplary odor control material acting on the nose receptors. The last data point 4 in table 2 is illustrating the activity of the odor control system of the present invention. For comparability, two individual odor control materials were mixed at half their amount compared to data points 2-3. Data point 4 was obtained by testing a mixture of alpha-Amylcinnamaldehyde and menthyl acetate. […] Thus, synergistic odor control activity has been proven. Further, odor unpleasantness and pleasantness of these samples was evaluated by a panel of expert graders. In particular, five different expert graders evaluated 4 replicates for each sample. Odor unpleasantness was evaluated by using a scale from −10 to +0, where—10 indicates the max odor unpleasantness, 0 indicates no odor. […]

Take `CC(=O)OC1CC(C)CCC1C(C)C` (stereo not drawn) [Menthyl acetate, menthyl acetate]: the “Weight Loss” value in series [1] was around 100%. Further, the Odor unpleasantness in series [2] is given as 46%. As to `CCCCCC(C=O)=Cc1ccccc1` [Alpha-Amylcinnamaldehyde, alpha-amylcinnamaldehyde], the Odor unpleasantness in series [2] stood at 64%.

Values taken from patent US8835511B2, “Absorbent articles including an odor control system” (The Procter & Gamble Company, priority 2007, dated 2014).
